Source: publication PMC6115017, “High-content imaging assay to evaluate Toxoplasma gondii infection and proliferation: A multiparametric assay to screen new compounds” (PLoS ONE, 2018)
Where two headings read alike, the source gives them in different places.

Columns and labels:
[1] = test system: Human foreskin fibroblasts (HFF) host cells; assay: Host cell viability in the HCI assay (host cell nuclei count); conditions: 0.037 to 81 μM, 30 h
Experimental: (§1) Cells were seeded at a density of 1.10^4 cells per well into 96-well plates, and allowed to grow for 48 h at 37°C and 5% CO2 to obtain sub-confluent HFF monolayers. Cells were then infected with 4.10^4 parasites per well. The plates were centrifuged for 1 min at 200 g and placed at 37°C, 5% CO2, for 2 h. After 3 washes in PBS, infected cells were incubated at 37°C, 5% CO2, for 30 hours with 200 μL of DMEM complete medium alone or supplemented with anti-Toxoplasma molecules, i.e. the reference drug pyrimethamine, or the tested molecules. These tested drugs were incubated at 10 μM in screening hit assays.
• the T. gondii infection rate (V/C), calculated as the ratio between the number of parasitophorous vacuoles per well (V) divided by the number of host cells per well (C); • the T. gondii proliferation index (P/V), calculated as the ratio between the number of parasites per well (P) divided by the number of parasitophorous vacuoles per well; • the intra-vacuolar distribution of parasites (percentage of parasitophorous vacuoles containing either 1, 2, 4, or 8 parasites); • the parasite proliferation inhibition (PPI), calculated with the following formula: PPI=(1−((P/V[mol]−P/V[Pyr])/(P/V[DMSO]−P/V[Pyr])))x100 where P/V[Pyr] was the average proliferation rate of Toxoplasma in the presence of 20 μM pyrimethamine, P/V[DMSO], the average proliferation rate of Toxoplasma in the presence of DMSO only and P/V[mol], the average proliferation rate of Toxoplasma in the presence of the tested molecule; • the cell viability (CV): (C [mol] / C[DMSO])x100, where C[mol] was the number of host cell nuclei per well containing the tested molecule and C[DMSO], the number of host cell nuclei per well containing the DMSO control.
A selectivity index activity (SI) was calculated as SI = CV50/IC50.

[2] = test system: T. gondii proliferation (RH-YFP2 parasites in HFF); assay: High Content Imaging (HCI) assay of T. gondii proliferation in HFF; conditions: for SI selectivity index: CV50/IC50: CV50 (HFF)/IC50 (T. gondii); for IC50 / inhibition at 10 µM / inhibition at 20 µM: Toxoplasma gondii; for Parasite proliferation inhibition (PPI): tested at 10 μM, HFF infected with T. gondii, normalised to DMSO and 20 μM pyrimethamine
Experimental: The parasites were collected just after host cell lysis, centrifuged at 800 g for 5 min, suspended in D10 medium, and counted.
A pyrimethamine (Sigma-Aldrich) stock solution was prepared at 10 mM in DMSO and was used at the final concentration of at 20 μM as a positive control for anti-Toxoplasma activity. Forty-six molecules were tested to determine their anti-Toxoplasma activity. Each molecule was prepared as a 10 mM stock solution in DMSO and tested at 10 μM. The hits were then further tested at the dilutions 0.01 to 100 μM.
as §1
Imaging of 96-well plates was performed using a high content imaging system (Olympus ScanR). […] Twenty fields per well were imaged.
The acquired images were analyzed using the ScanR analysis software. This analysis aimed to identify the parasitophorous vacuoles (V), the parasites’ nuclei (P) and host cells’ nuclei (C).
A fixed threshold was set up (Fig 1C) and a watershed algorithm was applied to split apart two vacuoles that associated with one another (Fig 1C, white arrow). A binary mask was obtained (Fig 1D) and objects on the image border were excluded. Segmentation of the parasites’ nuclei (Fig 1E–1G, arrowhead) was performed with the Hoechst fluorescence pixels (Fig 1E). In order to properly separate parasites’ nuclei one from another, an important rolling ball background subtraction filter was applied (5 pixels). Both the brightness and the contrast of filtered images were adjusted manually. Parasites were selected with an edge segmentation algorithm with a minimum object size of 10 pixels and a maximum object size of 30 pixels (Fig 1F). The obtained binary image allowed a clear detection of the parasites (Fig 1G).
The vacuole mask was merged with that of the parasites to identify parasites inside their parasitophorous vacuole and to exclude extracellular parasites or host cell nuclei (Fig 1H).

RH-YFP2 parasites in HFF = assay: [3H]-uracil incorporation assay of T. gondii proliferation; format: cell-based; conditions: Toxoplasma gondii; 20 μM pyrimethamine, 30 h in HFF; 100% proliferation = without pyrimethamine; 3 experiments; read-out: inhibition of parasite proliferation as determined by [3H]-uracil incorporation assay
Experimental: The intracellular growth of RH-YFP2 parasites in HFF was monitored by selective incorporation of [^3H]-uracil, as previously described. […] After several washes to eliminate extracellular parasites, infected cells were cultured for 30 h with […] of [^3H]-uracil per well. Monolayers were washed 3 times in phosphate buffered saline (PBS), disrupted with 500 μL of lysis/scintillation solution (Optiphase Supermix, Perkin Elmer, France) and their radioactivity was measured by liquid scintillation counting using a Wallac MicroBeta TriLux (Perkin Elmer) calibrated for [^3H]-uracil. Two experimental replicates were performed in each of the 3 separate experiments.

[3] = test system: Toxoplasma gondii parasites in HFF; assay: Manual microscopic counting of T. gondii proliferation; conditions: 30 h, read-out: inhibition of parasite proliferation as determined by manual microscopic observations
Experimental: as §1
Parasitophorous vacuoles, parasites and host cells were manually counted on the set of images provided by the Olympus IX81 microscope. Three different experiments were performed.
After 30 h of parasite culture in HFF, the total numbers of parasitophorous vacuoles and parasites were counted in wells with or without 20 μM pyrimethamine from 3 different experiments. The 100% proliferation corresponds to the number of parasites per well without pyrimethamine.

[4] = 30 h, read-out: IC50: concentration to inhibit 50% of T. gondii proliferation
[5] = 30 h, read-out: Parasite proliferation inhibition (PPI)

Compound: COc1ccc(C(=O)/C=C/c2cc(OC)c(OC)c(OC)c2)c(O)c1 [CH9]
- CV50: concentration to inhibit the viability of 50% of host cells [1]: >81 µM
- SI selectivity index: CV50/IC50 [2]: >12.3
- IC50 [2, 4]: 6600 ± 1500 nM
- inhibition at 10 µM [2, 5]: 93%
- Parasite proliferation inhibition (PPI) ([2]; 30 h): high proliferation inhibition activity

Compound: c1ccc(-c2nnc(-c3ccccc3)o2)cc1 [DO9]
- inhibition at 10 µM [2, 5]: 0%

Compound: COc1ccc(C(=O)/C=C/c2ccc(OC)c(OC)c2)c(O)c1 [CH5]
- inhibition at 10 µM [2, 5]: 3%

Compound: Oc1ccc(-c2nnc(-c3ccccc3)o2)cc1 [DO10]
- inhibition at 10 µM [2, 5]: 0%

Compound: CCc1nc(N)nc(N)c1-c1ccc(Cl)cc1 [pyrimethamine, reference compound]
- inhibition at 20 µM (RH-YFP2 parasites in HFF): 43.2%
- inhibition at 20 µM [3]: 25%
- CV50: concentration to inhibit the viability of 50% of host cells [1]: >81 µM
- SI selectivity index: CV50/IC50 [2]: >202
- IC50 ([2]; 24 h, read-out: IC50 of pyrimethamine, reproducibility): 600 nM
- IC50 [2, 4]: 400 ± 30 nM
- inhibition at 20 µM [2, 5]: 100%
- inhibition at 20 µM ([2]; 30 h, read-out: inhibition of parasite proliferation as determined by HCI): 25.2%
- IC50 ([2]; 72 h, read-out: IC50 of pyrimethamine, reproducibility): 440 nM

Compound: Oc1ccc(-c2nnc(-c3ccc(O)cc3O)o2)cc1 [DO13]
- inhibition at 10 µM [2, 5]: 0%

Compound: COc1cc(/C=C/C(=O)c2ccc(OC)cc2O)cc(OC)c1 [CH12]
- inhibition at 10 µM [2, 5]: 73%

Compound: COc1ccccc1-c1nnc(-c2ccccc2)o1 [DO6]
- inhibition at 10 µM [2, 5]: 0%

Compound: COc1cccc(OC)c1/C=C/C(=O)c1ccccc1 [CH4]
- inhibition at 10 µM [2, 5]: 29%

Compound: COc1ccc(-c2nnc(-c3ccccc3)o2)c(OC)c1 [DO8]
- inhibition at 10 µM [2, 5]: 0%

Compound: O=C1/C(=C/c2ccc(Br)cc2)Oc2cc(O)cc(O)c21 [AU7]
- inhibition at 10 µM [2, 5]: 0%

Compound: Oc1ccc(-c2nnc(-c3ccc(O)cc3)o2)cc1 [DO14]
- inhibition at 10 µM [2, 5]: 0%

Compound: COc1cccc(OC)c1/C=C/C(=O)c1c(OC)cccc1OC [CH1]
- inhibition at 10 µM [2, 5]: 0%

Compound: COc1ccc(-c2nnc(-c3ccccc3OC)o2)cc1 [DO3]
- CV50: concentration to inhibit the viability of 50% of host cells [1]: >81 µM
- SI selectivity index: CV50/IC50 [2]: >3
- IC50 [2, 4]: 27700 ± 6200 nM
- inhibition at 10 µM [2, 5]: 81%
- Parasite proliferation inhibition (PPI) ([2]; 30 h): high proliferation inhibition activity

Compound: Oc1ccccc1-c1nnc(-c2ccccc2)o1 [DO12]
- inhibition at 10 µM [2, 5]: 5%

Compound: COc1ccc(-c2nnc(-c3ccc(OC)cc3)o2)cc1 [DO4]
- inhibition at 10 µM [2, 5]: 0%

Compound: Oc1ccc(-c2nnc(-c3ccccc3)o2)c(O)c1 [DO11]
- inhibition at 10 µM [2, 5]: 0%
